# From patent publication US20230117034A1, “PYRAZOLOTRIAZINES” (Bayer Aktiengesellschaft, priority 2019, published 2023)
# Experiments:
# [1] = molecular target: T1, CDK12 (nuclear staining in CAL-120 cells) (Homo sapiens, UniProt Q9NYV4); assay: CDK12 nuclear protein level: immunofluorescence/high content analysis (CAL-120); format: cell-based; details: for DC50: CAL-120 cells, 24 h, immunofluorescence, 50% reduction of nuclear CDK12 staining intensity, median, read-out: CDK12 degradation IF, DC50- [mol/l] (median); for (IC50 CDK12 high ATP) to (Degradation DC50 CDK12) ratio: ratio of IC50 CDK12 high ATP kinase assay to DC50 CDK12 degradation (IF, CAL-120)
# T1 construct: endogenous in cells; host or cells: CAL-120 human breast cancer cells (DSMZ ACC 459)
# T1 sequence (Q9NYV4 whole entry): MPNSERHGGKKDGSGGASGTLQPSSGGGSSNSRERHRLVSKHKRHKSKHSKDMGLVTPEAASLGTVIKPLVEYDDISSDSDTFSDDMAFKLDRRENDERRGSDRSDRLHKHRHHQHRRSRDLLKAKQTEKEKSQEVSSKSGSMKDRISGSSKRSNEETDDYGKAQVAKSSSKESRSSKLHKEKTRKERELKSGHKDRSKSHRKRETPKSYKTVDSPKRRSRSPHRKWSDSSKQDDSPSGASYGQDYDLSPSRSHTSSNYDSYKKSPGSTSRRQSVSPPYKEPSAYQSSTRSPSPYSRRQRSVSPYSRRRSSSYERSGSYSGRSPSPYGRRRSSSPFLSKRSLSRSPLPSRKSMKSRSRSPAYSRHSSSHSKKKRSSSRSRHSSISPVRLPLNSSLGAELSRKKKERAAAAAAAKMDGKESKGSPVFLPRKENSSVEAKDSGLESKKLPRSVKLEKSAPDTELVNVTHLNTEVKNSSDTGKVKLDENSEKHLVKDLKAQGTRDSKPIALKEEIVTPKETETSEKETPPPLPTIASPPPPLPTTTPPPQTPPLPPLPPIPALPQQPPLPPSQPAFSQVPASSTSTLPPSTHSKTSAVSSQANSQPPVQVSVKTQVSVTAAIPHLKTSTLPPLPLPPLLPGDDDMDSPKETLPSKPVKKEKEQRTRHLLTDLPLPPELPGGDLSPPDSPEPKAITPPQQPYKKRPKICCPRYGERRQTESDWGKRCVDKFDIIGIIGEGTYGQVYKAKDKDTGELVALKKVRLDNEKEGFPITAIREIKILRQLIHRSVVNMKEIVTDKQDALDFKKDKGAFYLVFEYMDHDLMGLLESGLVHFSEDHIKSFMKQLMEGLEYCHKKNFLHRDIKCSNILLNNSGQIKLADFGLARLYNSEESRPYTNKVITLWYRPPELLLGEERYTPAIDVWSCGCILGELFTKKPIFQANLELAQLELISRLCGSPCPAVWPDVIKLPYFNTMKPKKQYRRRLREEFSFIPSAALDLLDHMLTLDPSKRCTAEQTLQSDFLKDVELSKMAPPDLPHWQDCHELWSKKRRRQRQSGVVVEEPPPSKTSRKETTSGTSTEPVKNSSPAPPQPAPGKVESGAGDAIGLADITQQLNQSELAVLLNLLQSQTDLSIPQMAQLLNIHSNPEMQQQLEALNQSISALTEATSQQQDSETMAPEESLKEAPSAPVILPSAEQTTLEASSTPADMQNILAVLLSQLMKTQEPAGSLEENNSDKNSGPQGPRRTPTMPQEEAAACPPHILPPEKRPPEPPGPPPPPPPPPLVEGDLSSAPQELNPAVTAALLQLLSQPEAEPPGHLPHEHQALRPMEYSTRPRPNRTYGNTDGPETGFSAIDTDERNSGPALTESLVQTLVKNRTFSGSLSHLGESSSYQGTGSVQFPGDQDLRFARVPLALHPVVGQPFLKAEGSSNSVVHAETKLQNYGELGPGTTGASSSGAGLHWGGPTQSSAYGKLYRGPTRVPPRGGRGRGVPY
# T1 sequence (O75909 whole entry partner): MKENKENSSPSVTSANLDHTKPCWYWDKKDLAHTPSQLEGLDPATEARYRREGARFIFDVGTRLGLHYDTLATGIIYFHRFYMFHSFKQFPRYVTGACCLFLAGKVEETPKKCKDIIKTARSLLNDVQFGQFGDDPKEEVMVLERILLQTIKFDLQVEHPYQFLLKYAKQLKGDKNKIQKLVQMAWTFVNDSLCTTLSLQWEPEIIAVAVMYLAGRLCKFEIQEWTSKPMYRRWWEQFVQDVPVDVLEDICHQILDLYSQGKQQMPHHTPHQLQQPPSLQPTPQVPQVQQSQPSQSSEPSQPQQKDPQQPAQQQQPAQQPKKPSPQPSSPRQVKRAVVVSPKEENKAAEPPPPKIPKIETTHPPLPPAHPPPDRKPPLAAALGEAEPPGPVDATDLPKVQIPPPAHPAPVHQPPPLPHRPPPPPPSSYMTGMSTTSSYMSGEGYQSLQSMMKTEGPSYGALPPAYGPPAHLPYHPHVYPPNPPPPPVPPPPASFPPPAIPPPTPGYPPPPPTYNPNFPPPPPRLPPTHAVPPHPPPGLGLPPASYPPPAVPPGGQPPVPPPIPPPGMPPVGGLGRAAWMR
# Method in brief: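 DC50 is the degrader concentration that halves nuclear CDK12 immunofluorescence relative to controls, measured by high-content imaging. CAL-120 cells were exposed to compound for 24 h at 37 °C before PFA fixation, and signal was normalized to DMSO and control wells.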
# [2] = system: BRCA1 mRNA expression in MDA-MB-231 cells; assay: qRT-PCR assay: BRCA1 mRNA expression in MDA-MB-231; format: cell-based, human; details: Homo sapiens, MDA-MB-231, Inhibition of BRCA1 mRNA expression in MDA-MB-231 cells; median; read-out: RTqPCR-MDA-MB-231, IC50, BRCA1 (median)
# Method in brief: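 Seed 200,000 cells/well; 24 h later add compound, continuous exposure 24 h; extract RNA, 600 ng to cDNA; RT-qPCR, normalised to GAPDH.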
# CDK12/CycK = CDK12/CycK (Homo sapiens, UniProt Q9NYV4); assay: CDK12/CycK high ATP kinase assay (TR-FRET, 2 mM ATP); format: biochemical; details: 2 mM ATP (high ATP); median; read-out: CDK12/CyclinK, 2 mM ATP (high ATP), IC50-[mol/l] (median)
# CDK12/CycK, sequence (Q9NYV4 with tags, fused parts or gaps): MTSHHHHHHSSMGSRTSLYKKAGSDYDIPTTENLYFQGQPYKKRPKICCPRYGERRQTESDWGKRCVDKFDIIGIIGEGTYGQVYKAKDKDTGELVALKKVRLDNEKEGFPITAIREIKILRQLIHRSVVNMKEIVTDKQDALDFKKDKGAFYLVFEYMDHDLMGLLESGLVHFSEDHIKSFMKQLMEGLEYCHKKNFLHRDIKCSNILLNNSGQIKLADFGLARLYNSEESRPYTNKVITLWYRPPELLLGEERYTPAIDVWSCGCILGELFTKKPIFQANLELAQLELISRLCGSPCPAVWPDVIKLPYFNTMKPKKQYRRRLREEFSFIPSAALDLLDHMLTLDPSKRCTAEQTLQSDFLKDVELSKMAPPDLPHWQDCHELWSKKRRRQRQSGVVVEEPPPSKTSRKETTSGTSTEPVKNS
# CDK12/CycK, sequence (O75909 1-300 partner limits assumed): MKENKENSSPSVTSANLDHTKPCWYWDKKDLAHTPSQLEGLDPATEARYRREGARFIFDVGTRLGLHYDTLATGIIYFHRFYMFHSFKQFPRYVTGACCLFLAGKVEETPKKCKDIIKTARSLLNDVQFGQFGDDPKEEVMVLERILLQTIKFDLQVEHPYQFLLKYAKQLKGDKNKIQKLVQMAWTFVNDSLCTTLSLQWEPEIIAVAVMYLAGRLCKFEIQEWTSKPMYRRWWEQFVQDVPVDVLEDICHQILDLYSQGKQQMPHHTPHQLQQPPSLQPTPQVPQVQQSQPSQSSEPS
# Method in brief: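 Read-out is TR-FRET (Eu-anti-rabbit IgG, anti-phospho-c-Myc Ser62 antibody, streptavidin-XL665) after EDTA stop. Reaction ran 60 min at 22 °C using 1 µM biotin-peptide and high ATP (2 mM) with roughly 0.75 nM recombinant CDK12/CycK, after 15 min compound pre-binding; normalised emission ratios yield IC50.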
SMILES,DC50 [1] [nM],(IC50 CDK12 high ATP) to (Degradation DC50 CDK12) ratio [1],IC50 [2] [nM],IC50 (CDK12/CycK) [µM]
"CN1C[C@H]2C[C@@H]1CN2c1nc(NCc2nc3ccccc3[nH]2)n2ncc(Br)c2n1 [Example 218, N-[(1H-benzimidazol-2-yl)methyl]-8-bromo-2-[(1R,4R)-5-methyl-2,5-diazabicyclo[2.2.1]heptan-2-yl]pyrazolo[1,5-a][1,3,5]triazin-4-amine]",10.5,>1900,12.3,> 20
"Fc1ccc2[nH]c(CNc3nc(N4CCOCC4)nc4c(C5CC5)cnn34)nc2c1F [Example 172, 8-cyclopropyl-N-[(4,5-difluoro-1H-benzimidazol-2-yl)methyl]-2-(morpholin-4-yl)pyrazolo[1,5-a][1,3,5]triazin-4-amine]",1.1,581,0.626,0.641
"Cc1ccc2[nH]c(CNc3nc(N4CCOCC4)nc4c(C5CC5)cnn34)nc2c1 [Example 193, 8-cyclopropyl-N-[(5-methyl-1H-benzimidazol-2-yl)methyl]-2-(morpholin-4-yl)pyrazolo[1,5-a][1,3,5]triazin-4-amine]",2.68,653,3.65,1.75
"OC[C@@H]1CCCCN1c1nc(NCc2nc3c(F)c(F)ccc3[nH]2)n2ncc(C3CC3)c2n1 [Example 184, [(2S)-1-(8-cyclopropyl-4-{[(4,5-difluoro-1H-benzimidazol-2-yl)methyl]amino}pyrazolo[1,5-a][1,3,5]triazin-2-yl)piperidin-2-yl]methanol]",1.75,8,3.89,0.0132
"Cc1ccc2[nH]c(CNc3nc(N4C[C@@H]5CCCN[C@@H]5C4)nc4c(Br)cnn34)nc2c1 [Example 203, 8-bromo-N-[(5-methyl-1H-benzimidazol-2-yl)methyl]-2-[(4aS, 7aS)-octahydro-6H-pyrrolo[3,4-b]pyridin-6-yl]pyrazolo[1,5-a][1,3,5]triazin-4-amine]",0.64,13757,1.19,8.8
"CN1CC[C@@H]2CN(c3nc(NCc4nc5ccccc5[nH]4)n4ncc(Br)c4n3)C[C@@H]21 [Example 217, N-[(1H-benzimidazol-2-yl)methyl]-8-bromo-2-[(3aR,6aR)-1-methylhexahydropyrrolo[3,4-b]pyrrol-5 (1H)-yl]pyrazolo[1,5-a][1,3,5]triazin-4-amine]",8.64,>2315,33.5,> 20
"CC1CN(c2nc(NCc3nc4ccccc4[nH]3)n3ncc(C(C)C)c3n2)CCO1 (racemic) [Example 11, (rac)-N-[(1H-benzimidazol-2-yl)methyl]-2-[2-methylmorpholin-4-yl]-8-(propan-2-yl)pyrazolo[1,5-a][1,3,5]triazin-4-amine]",12.6,251,31.8,3.16
"Cc1ccc2[nH]c(CNc3nc(N4C[C@H]5C[C@@H]4CO5)nc4c(C5CC5)cnn34)nc2c1 [Example 196, 8-cyclopropyl-N-[(5-methyl-1H-benzimidazol-2-yl)methyl]-2-[(1R,4R)-2-oxa-5-azabicyclo[2.2.1]heptan-5-yl]pyrazolo[1,5-a][1,3,5]triazin-4-amine]",1.9,8068,4.27,15.4
"Fc1ccc2[nH]c(CNc3nc(N4C[C@@H]5C[C@H]4CO5)nc4c(C5CC5)cnn34)nc2c1 [Example 185, 8-cyclopropyl-N-[(5-fluoro-1H-benzimidazol-2-yl)methyl]-2-[(1S,4S)-2-oxa-5-azabicyclo[2.2.1]heptan-5-yl]pyrazolo[1,5-a][1,3,5]triazin-4-amine]",2.49,>7872,26.6,> 19.6
"COc1cccc2[nH]c(CNc3nc(N4CCOCC4)nc4c(C5CC5)cnn34)nc12 [Example 213, 8-cyclopropyl-N-[(4-methoxy-1H-benzimidazol-2-yl)methyl]-2-morpholino-pyrazolo[1,5-a][1,3,5]triazin-4-amine]",2.11,497,15,1.05
"Fc1ccc2[nH]c(CNc3nc(N4C[C@@H]5CCCN[C@@H]5C4)nc4c(C5CC5)cnn34)nc2c1 [Example 180, 8-cyclopropyl-N-[(5-fluoro-1H-benzimidazol-2-yl)methyl]-2-[(4aS, 7aS)-octahydro-6H-pyrrolo[3,4-b]pyridin-6-yl]pyrazolo[1,5-a][1,3,5]triazin-4-amine]",1.59,10852,12,17.3
"O[C@H]1CCN(c2nc(NCc3nc4ccccc4[nH]3)n3ncc(Br)c3n2)C1 [Example 224, (3S)-1-(4-{[(1H-benzimidazol-2-yl)methyl]amino}-8-bromopyrazolo[1,5-a][1,3,5]triazin-2-yl)pyrrolidin-3-ol]",38.4,407,21.2,15.6

# The next compounds have a lower DC50 [1] than those just listed; values first:
DC50 [1] [nM],(IC50 CDK12 high ATP) to (Degradation DC50 CDK12) ratio [1],IC50 [2] [nM],IC50 (CDK12/CycK) [µM],SMILES
0.606,548,2.18,0.332,"OC[C@@H]1CCCCN1c1nc(NCc2nc3cc(F)ccc3[nH]2)n2ncc(C3CC3)c2n1 [Example 191, [(2S)-1-(8-cyclopropyl-4-{[(5-fluoro-1H-benzimidazol-2-yl)methyl]amino}pyrazolo[1,5-a][1,3,5]triazin-2-yl)piperidin-2-yl]methanol]"
0.557,20,1.98,0.0109,"OC[C@@H]1CCCCN1c1nc(NCc2nc3c(F)cccc3[nH]2)n2ncc(C3CC3)c2n1 [Example 189, [(2S)-1-(8-cyclopropyl-4-{[(4-fluoro-1H-benzimidazol-2-yl)methyl]amino}pyrazolo[1,5-a][1,3,5]triazin-2-yl)piperidin-2-yl]methanol]"
0.553,11161,3.27,6.17,"Fc1ccc2[nH]c(CNc3nc(N4CCNCC4)nc4c(C5CC5)cnn34)nc2c1 [Example 190, 8-cyclopropyl-N-[(5-fluoro-1H-benzimidazol-2-yl)methyl]-2-(piperazin-1-yl)pyrazolo[1,5-a][1,3,5]triazin-4-amine]"
0.532,10872,2.46,5.78,"C[C@@H]1CN(c2nc(NCc3nc4ccccc4[nH]3)n3ncc(Br)c3n2)CCN1 [Example 168, N-[(1H-benzimidazol-2-yl)methyl]-8-bromo-2-[(3R)-3-methylpiperazin-1-yl]pyrazolo[1,5-a][1,3,5]triazin-4-amine]"
0.506,15749,1.81,7.97,"COc1ccc2[nH]c(CNc3nc(N4C[C@@H](C)N[C@@H](C)C4)nc4c(Br)cnn34)nc2c1 [Example 205, 8-bromo-2-[(3R,5S)-3,5-dimethylpiperazin-1-yl]-N-[(5-methoxy-1 H-benzimidazol-2-yl)methyl]pyrazolo[1,5-a][1,3,5]triazin-4-amine]"
